# Laboratory results taken from the kinase profiling compilation of Christmann-Franck et al. (2016).
# Key:
# Assay in all cases: radiometric filter-binding kinase assay, Kinase HotSpot
# Details in all cases: compound 0.5 µM; ATP 10 µM
# TAOK3 (human) = TAOK3 (human) (UniProt Q9H2K8)
# FLT1 (human) = FLT1 (human) (UniProt P17948)
# FGR (human) = FGR (human) (UniProt P09769)
# ABL2 (human) = ABL2 (human) (UniProt P42684)
# PLK3 (human) = PLK3 (human) (UniProt Q9H4B4)
# PAK6 (human) = PAK6 (human) (UniProt Q9NQU5)
# STK10 (human) = STK10 (human) (UniProt O94804)
# SGK2 (human) = SGK2 (human) (UniProt Q9HBY8)
# CAMKK1 (human) = CAMKK1 (human) (UniProt Q8N5S9)
# MARK1 (human) = MARK1 (human) (UniProt Q9P0L2)
# MARK1 (human), sequence (Q9P0L2 whole entry, looked up): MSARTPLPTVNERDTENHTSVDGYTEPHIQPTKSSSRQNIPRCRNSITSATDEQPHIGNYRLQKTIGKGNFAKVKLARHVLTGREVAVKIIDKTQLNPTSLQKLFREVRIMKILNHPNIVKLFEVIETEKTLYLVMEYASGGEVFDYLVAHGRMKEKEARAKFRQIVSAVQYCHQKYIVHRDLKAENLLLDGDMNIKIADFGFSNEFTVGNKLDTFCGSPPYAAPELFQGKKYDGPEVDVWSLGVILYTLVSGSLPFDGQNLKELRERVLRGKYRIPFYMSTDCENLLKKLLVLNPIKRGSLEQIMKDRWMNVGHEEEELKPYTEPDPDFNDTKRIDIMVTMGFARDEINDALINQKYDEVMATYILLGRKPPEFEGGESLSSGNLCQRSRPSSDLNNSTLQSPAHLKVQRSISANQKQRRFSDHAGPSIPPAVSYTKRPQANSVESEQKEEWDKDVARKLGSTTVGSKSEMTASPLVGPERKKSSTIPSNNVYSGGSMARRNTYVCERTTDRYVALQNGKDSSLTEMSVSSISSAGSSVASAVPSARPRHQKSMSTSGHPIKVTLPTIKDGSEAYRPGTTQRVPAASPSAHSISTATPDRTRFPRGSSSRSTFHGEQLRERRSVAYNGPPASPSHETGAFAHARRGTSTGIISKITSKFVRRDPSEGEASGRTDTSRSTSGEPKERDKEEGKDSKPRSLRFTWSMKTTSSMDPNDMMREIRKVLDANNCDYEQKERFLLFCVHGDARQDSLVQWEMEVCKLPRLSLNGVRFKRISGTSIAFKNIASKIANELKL
# MATK (human) = MATK (human) (UniProt P42679)
# GRK7 (human) = GRK7 (human) (UniProt Q8WTQ7)
# GRK7 (human), sequence (Q8WTQ7 whole entry, looked up): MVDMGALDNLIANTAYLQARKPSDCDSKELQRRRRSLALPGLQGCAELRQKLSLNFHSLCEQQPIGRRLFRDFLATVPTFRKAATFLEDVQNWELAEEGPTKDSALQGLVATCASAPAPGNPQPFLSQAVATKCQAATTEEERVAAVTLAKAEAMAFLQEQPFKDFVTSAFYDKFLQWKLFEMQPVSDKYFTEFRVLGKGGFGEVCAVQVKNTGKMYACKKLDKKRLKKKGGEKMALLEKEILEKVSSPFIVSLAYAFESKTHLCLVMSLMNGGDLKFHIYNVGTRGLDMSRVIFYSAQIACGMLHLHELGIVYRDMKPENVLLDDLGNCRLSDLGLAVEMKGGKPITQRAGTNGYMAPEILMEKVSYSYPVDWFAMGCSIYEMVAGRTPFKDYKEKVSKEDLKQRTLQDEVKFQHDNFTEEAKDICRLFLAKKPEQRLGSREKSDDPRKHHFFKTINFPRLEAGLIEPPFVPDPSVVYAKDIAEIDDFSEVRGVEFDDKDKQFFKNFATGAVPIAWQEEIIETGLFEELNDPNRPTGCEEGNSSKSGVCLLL
# CDC42BPB (human) = CDC42BPB (human) (UniProt Q9Y5S2)
# ADRBK1 (human) = ADRBK1 (human) (UniProt P25098)
# ADRBK1 (human), sequence (P25098 whole entry, looked up): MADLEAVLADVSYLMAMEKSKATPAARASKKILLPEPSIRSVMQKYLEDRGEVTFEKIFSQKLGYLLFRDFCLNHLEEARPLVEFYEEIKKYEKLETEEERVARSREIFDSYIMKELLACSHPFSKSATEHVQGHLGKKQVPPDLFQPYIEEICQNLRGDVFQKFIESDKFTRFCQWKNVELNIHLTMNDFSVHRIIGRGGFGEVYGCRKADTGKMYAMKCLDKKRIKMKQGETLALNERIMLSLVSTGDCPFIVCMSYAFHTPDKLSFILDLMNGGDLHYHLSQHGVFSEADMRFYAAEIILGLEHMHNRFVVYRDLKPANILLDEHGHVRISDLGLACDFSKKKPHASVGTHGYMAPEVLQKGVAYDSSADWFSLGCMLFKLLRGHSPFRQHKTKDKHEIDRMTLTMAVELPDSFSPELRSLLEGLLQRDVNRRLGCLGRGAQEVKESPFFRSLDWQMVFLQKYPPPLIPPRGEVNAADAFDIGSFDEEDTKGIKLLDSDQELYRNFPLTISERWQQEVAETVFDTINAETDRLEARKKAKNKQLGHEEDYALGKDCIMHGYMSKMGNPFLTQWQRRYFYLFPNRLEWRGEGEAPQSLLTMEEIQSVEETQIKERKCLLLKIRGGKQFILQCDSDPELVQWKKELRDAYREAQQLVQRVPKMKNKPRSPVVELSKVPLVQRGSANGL
# PRKCE (human) = PRKCE (human) (UniProt Q02156)
# PRKCB1 (human) = PRKCB1 (human) (UniProt P05771)
# PRKCB1 (human), sequence (P05771 whole entry, looked up): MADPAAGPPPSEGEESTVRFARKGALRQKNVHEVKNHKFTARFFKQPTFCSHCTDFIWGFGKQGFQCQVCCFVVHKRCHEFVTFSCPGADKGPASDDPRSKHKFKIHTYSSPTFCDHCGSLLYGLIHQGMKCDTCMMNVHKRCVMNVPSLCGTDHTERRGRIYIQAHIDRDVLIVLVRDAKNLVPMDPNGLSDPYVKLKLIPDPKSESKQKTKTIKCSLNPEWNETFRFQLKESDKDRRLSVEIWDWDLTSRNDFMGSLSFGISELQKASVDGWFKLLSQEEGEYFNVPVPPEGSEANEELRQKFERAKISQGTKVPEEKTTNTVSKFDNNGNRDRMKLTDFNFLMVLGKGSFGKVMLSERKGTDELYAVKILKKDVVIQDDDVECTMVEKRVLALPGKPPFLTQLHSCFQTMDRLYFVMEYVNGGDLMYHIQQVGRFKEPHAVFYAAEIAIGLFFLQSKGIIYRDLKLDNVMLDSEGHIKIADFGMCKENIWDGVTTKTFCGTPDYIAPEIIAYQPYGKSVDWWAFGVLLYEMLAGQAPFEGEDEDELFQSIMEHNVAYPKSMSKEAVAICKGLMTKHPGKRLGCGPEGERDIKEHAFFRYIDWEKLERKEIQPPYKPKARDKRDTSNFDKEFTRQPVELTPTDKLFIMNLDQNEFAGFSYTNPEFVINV
# MARK4 (human) = MARK4 (human) (UniProt Q96L34)
# CDK5 CDK5R1 p25 (human) = CDK5 CDK5R1 p25 (human) (UniProt Q00535+Q15078)
# PRKCG (human) = PRKCG (human) (UniProt P05129)
# IRAK4 (human) = IRAK4 (human) (UniProt Q9NWZ3)
# YES1 (human) = YES1 (human) (UniProt P07947)
# PRKCD (human) = PRKCD (human) (UniProt Q05655)
# PRKCD (human), sequence (Q05655 whole entry, looked up): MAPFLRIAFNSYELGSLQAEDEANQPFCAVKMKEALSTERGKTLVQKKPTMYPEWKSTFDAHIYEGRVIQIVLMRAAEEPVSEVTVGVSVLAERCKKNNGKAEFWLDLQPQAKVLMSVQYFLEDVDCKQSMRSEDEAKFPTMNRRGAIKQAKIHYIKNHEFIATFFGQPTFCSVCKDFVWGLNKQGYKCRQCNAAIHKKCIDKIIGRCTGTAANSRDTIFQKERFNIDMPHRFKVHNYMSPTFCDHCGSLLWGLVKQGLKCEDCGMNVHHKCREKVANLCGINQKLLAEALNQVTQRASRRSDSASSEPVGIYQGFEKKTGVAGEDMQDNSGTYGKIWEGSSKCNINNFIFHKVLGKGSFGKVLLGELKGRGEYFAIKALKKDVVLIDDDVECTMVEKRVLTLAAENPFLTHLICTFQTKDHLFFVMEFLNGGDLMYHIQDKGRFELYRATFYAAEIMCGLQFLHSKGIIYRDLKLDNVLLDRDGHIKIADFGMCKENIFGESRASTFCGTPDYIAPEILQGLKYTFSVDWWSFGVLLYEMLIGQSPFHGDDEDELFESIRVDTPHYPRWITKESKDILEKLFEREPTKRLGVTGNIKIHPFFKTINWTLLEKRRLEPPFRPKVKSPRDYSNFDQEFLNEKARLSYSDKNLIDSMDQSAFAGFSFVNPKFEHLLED
# NEK4 (human) = NEK4 (human) (UniProt P51957)
# ZAP70 (human) = ZAP70 (human) (UniProt P43403)
# ADRBK2 (human) = ADRBK2 (human) (UniProt P35626)
# CAMK2A (human) = CAMK2A (human) (UniProt Q9UQM7)
# EPHA1 (human) = EPHA1 (human) (UniProt P21709)
# BMX (human) = BMX (human) (UniProt P51813)
# HIPK2 (human) = HIPK2 (human) (UniProt Q9H2X6)
# MAP3K2 (human) = MAP3K2 (human) (UniProt Q9Y2U5)
# MAP3K2 (human), sequence (Q9Y2U5 whole entry, looked up): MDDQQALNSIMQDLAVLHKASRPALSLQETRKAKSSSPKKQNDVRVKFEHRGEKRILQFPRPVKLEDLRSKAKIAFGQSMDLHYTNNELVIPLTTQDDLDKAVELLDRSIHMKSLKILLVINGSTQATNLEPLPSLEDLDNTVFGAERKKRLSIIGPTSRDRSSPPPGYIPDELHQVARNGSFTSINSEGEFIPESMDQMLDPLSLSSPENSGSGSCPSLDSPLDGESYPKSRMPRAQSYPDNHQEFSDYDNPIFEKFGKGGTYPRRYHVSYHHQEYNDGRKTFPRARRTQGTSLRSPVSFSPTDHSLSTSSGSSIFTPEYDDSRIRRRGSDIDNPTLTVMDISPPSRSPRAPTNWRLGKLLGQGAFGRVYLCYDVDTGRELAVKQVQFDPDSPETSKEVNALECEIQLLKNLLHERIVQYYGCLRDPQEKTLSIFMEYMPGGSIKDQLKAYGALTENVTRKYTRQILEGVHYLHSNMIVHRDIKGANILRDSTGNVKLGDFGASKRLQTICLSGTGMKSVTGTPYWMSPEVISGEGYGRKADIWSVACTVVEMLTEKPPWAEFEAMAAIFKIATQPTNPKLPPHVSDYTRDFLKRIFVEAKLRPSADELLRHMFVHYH
# MYLK (human) = MYLK (human) (UniProt Q15746)
# DSTYK (human) = DSTYK (human) (UniProt Q6XUX3)
# SGK3 (human) = SGK3 (human) (UniProt Q96BR1)
# LRRK2 (human) = LRRK2 (human) (UniProt Q5S007)
# BTK (human) = BTK (human) (UniProt Q06187)
# CDK9 CCNK (human) = CDK9 CCNK (human) (UniProt O75909+P50750)
# CDK9 CCNK (human), sequence (O75909 whole entry, looked up): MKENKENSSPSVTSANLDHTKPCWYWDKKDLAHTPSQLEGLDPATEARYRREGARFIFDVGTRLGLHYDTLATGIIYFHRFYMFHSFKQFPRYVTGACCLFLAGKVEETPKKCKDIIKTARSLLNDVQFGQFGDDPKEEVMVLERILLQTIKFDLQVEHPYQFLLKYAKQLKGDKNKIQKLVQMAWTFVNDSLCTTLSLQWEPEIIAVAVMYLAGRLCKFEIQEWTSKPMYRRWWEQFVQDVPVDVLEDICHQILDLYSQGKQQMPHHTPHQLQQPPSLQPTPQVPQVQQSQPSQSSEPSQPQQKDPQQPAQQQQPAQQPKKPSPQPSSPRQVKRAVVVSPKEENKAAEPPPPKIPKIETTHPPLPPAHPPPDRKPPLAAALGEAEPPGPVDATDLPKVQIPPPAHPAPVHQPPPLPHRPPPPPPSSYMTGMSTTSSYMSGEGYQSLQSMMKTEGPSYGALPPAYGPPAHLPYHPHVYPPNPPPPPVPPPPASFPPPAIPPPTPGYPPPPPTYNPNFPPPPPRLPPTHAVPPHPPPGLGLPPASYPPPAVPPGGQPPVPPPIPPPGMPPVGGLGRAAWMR
# CDK9 CCNK (human), sequence (P50750 whole entry, looked up): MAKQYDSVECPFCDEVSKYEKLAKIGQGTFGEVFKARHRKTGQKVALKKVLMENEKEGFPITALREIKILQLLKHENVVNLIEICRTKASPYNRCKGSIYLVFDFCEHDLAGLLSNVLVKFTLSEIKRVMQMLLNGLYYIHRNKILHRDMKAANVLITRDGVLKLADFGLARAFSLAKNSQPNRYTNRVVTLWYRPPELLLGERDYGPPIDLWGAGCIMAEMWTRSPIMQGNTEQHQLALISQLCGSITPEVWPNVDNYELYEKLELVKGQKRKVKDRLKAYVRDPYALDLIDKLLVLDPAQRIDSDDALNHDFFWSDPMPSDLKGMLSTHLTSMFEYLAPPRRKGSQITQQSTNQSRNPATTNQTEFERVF
# PRKCI (human) = PRKCI (human) (UniProt P41743)
# PAK4 (human) = PAK4 (human) (UniProt O96013)
# CDC42BPA (human) = CDC42BPA (human) (UniProt Q5VT25)
# MLTK (human) = MLTK (human) (UniProt Q9NYL2)
# CSK (human) = CSK (human) (UniProt P41240)
# ITK (human) = ITK (human) (UniProt Q08881)
compound,measurement,setting,value
Cc1cccc(-c2nc(C(C)(C)C)[nH]c2-c2ccc3c(c2)OCO3)n1,residual activity,TAOK3 (human),102%
same,residual activity,FLT1 (human),84.3%
same,residual activity,FGR (human),99.9%
same,residual activity,ABL2 (human),95.7%
same,residual activity,PLK3 (human),95.6%
same,residual activity,PAK6 (human),103%
same,residual activity,STK10 (human),94.5%
same,residual activity,SGK2 (human),100%
same,residual activity,CAMKK1 (human),103%
same,residual activity,MARK1 (human),85.1%
same,residual activity,MATK (human),100%
same,residual activity,GRK7 (human),103%
same,residual activity,CDC42BPB (human),102%
same,residual activity,ADRBK1 (human),105%
same,residual activity,PRKCE (human),97.9%
same,residual activity,PRKCB1 (human),82.5%
same,residual activity,MARK4 (human),99.7%
same,residual activity,CDK5 CDK5R1 p25 (human),90.1%
same,residual activity,PRKCG (human),107%
same,residual activity,IRAK4 (human),86.8%
same,residual activity,YES1 (human),97%
same,residual activity,PRKCD (human),104%
same,residual activity,NEK4 (human),94.9%
same,residual activity,ZAP70 (human),106%
same,residual activity,ADRBK2 (human),96.3%
same,residual activity,CAMK2A (human),103%
same,residual activity,EPHA1 (human),124%
same,residual activity,BMX (human),82%
same,residual activity,HIPK2 (human),101%
same,residual activity,MAP3K2 (human),99.9%
same,residual activity,MYLK (human),105%
same,residual activity,DSTYK (human),89.1%
same,residual activity,SGK3 (human),98%
same,residual activity,LRRK2 (human),103%
same,residual activity,BTK (human),118%
same,residual activity,CDK9 CCNK (human),106%
same,residual activity,PRKCI (human),92.8%
same,residual activity,PAK4 (human),77.5%
same,residual activity,CDC42BPA (human),89.6%
same,residual activity,MLTK (human),97.8%
same,residual activity,CSK (human),102%
same,residual activity,ITK (human),95.8%
COc1ccc2c(c1)/C(=C/c1cnc[nH]1)C(O)=N2,residual activity,TAOK3 (human),44%
same,residual activity,FLT1 (human),73.9%
same,residual activity,FGR (human),80.4%
same,residual activity,ABL2 (human),90.6%
same,residual activity,PLK3 (human),93%
same,residual activity,PAK6 (human),101%
same,residual activity,STK10 (human),67%
same,residual activity,SGK2 (human),71.4%
same,residual activity,CAMKK1 (human),91.3%
same,residual activity,MARK1 (human),50.4%
same,residual activity,MATK (human),92.3%
same,residual activity,GRK7 (human),99.7%
same,residual activity,CDC42BPB (human),104%
same,residual activity,ADRBK1 (human),107%
same,residual activity,PRKCE (human),99%
same,residual activity,PRKCB1 (human),112%
same,residual activity,MARK4 (human),37.4%
same,residual activity,CDK5 CDK5R1 p25 (human),4.52%
same,residual activity,PRKCG (human),95.2%
same,residual activity,IRAK4 (human),92.2%
same,residual activity,YES1 (human),82.1%
same,residual activity,PRKCD (human),95.5%
same,residual activity,NEK4 (human),96%
same,residual activity,ZAP70 (human),92.8%
same,residual activity,ADRBK2 (human),101%
same,residual activity,CAMK2A (human),86.6%
same,residual activity,EPHA1 (human),97.3%
same,residual activity,BMX (human),100%
same,residual activity,HIPK2 (human),100%
same,residual activity,MAP3K2 (human),89.6%
same,residual activity,MYLK (human),80.9%
same,residual activity,DSTYK (human),106%
same,residual activity,SGK3 (human),101%
same,residual activity,LRRK2 (human),27.9%
same,residual activity,BTK (human),101%
same,residual activity,CDK9 CCNK (human),59.4%
same,residual activity,PRKCI (human),96.9%
same,residual activity,PAK4 (human),100%
same,residual activity,CDC42BPA (human),98.5%
same,residual activity,MLTK (human),91.4%
same,residual activity,CSK (human),96.1%
same,residual activity,ITK (human),94%
COc1ccc(S(=O)(=O)N(CCO)c2ccccc2CN(C)C/C=C/c2ccc(Cl)cc2)cc1,residual activity,TAOK3 (human),91.2%
same,residual activity,FLT1 (human),94.7%
same,residual activity,FGR (human),99.8%
same,residual activity,ABL2 (human),97.4%
same,residual activity,PLK3 (human),99.4%
same,residual activity,PAK6 (human),101%
same,residual activity,STK10 (human),99.4%
same,residual activity,SGK2 (human),99.8%
same,residual activity,CAMKK1 (human),106%
same,residual activity,MARK1 (human),98.4%
same,residual activity,MATK (human),101%
same,residual activity,GRK7 (human),114%
same,residual activity,CDC42BPB (human),101%
same,residual activity,ADRBK1 (human),97.9%
same,residual activity,PRKCE (human),97.2%
same,residual activity,PRKCB1 (human),97.7%
same,residual activity,MARK4 (human),102%
same,residual activity,CDK5 CDK5R1 p25 (human),97.7%
same,residual activity,PRKCG (human),95.1%
same,residual activity,IRAK4 (human),97.2%
same,residual activity,YES1 (human),103%
same,residual activity,PRKCD (human),94.3%
same,residual activity,NEK4 (human),98.7%
same,residual activity,ZAP70 (human),84.7%
same,residual activity,ADRBK2 (human),105%
same,residual activity,CAMK2A (human),107%
same,residual activity,EPHA1 (human),101%
same,residual activity,BMX (human),101%
same,residual activity,HIPK2 (human),107%
same,residual activity,MAP3K2 (human),95.3%
same,residual activity,MYLK (human),98.4%
same,residual activity,DSTYK (human),93.5%
same,residual activity,SGK3 (human),106%
same,residual activity,LRRK2 (human),101%
same,residual activity,BTK (human),96.4%
same,residual activity,CDK9 CCNK (human),99.1%
same,residual activity,PRKCI (human),97.5%
same,residual activity,PAK4 (human),101%
same,residual activity,CDC42BPA (human),100%
same,residual activity,MLTK (human),97%
same,residual activity,CSK (human),95.6%
same,residual activity,ITK (human),97.1%
